Data published in patent US20080153872A1, “Bis-(Coumarin) Compounds With Anti-Inflammatory Activity” (priority 2005, published 2008).

How the values were obtained:
human PDE4 = experiment: Human PDE4 assay (U937); format: biochemical; details: 10 μM concentration
Description: (§1) All compounds were dissolved in dimethyl sulfoxide (DMSO). Final concentration of the DMSO in all tests was 1% (v/v). Inhibition in all tests is considered preferred if it exceeds 50% at 10 μM concentration (or less).
PDE4 assay. PDE is implicated in diseases such as chronic obstructive pulmonary disease and neutrophilia. Human monocytic leukemia cell line U937 is pre-incubated at 25° C. in Tris-HCl buffer containing magnesium ions for 15 minutes. 1.01 μM tritium labeled cyclic adenosine monophosphate (cAMP) is added as substrate, followed by incubation at 25° C. for 20 minutes. Percentage of inhibition is calculated by comparing the adenosine levels in supernatant which is formed from cAMP in treated versus control cells.

human PDE3 = target: T1, human PDE3 (Homo sapiens, UniProt Q14432); experiment: Human PDE3 assay (platelets); format: biochemical; details: 10 μM concentration
T1 construct: Isolated human platelets are pre-incubated at 25° C; from tissue; host or cells: human platelets
Description: as §1
PDE3 assay. Isolated human platelets are pre-incubated at 25° C. in Tris-HCl buffer containing magnesium ions for 15 minutes. 1.01 μM tritium labeled cyclic adenosine monophosphate (cAMP) is added as substrate, followed by incubation at 25° C. for 20 minutes. Percentage of inhibition is calculated by comparing the adenosine levels in supernatant which is formed from cAMP in treated versus control cells.

TxA2 receptor = target: T2, TxA2 receptor (Homo sapiens, UniProt P21731); experiment: Human thromboxane A2, TxA2, assay (SQ-29548 competition); format: binding; details: 10 μM concentration; HEK-293
T2 construct: expressed in transfected cells; host or cells: HEK-293
T2 sequence (P21731 1-343): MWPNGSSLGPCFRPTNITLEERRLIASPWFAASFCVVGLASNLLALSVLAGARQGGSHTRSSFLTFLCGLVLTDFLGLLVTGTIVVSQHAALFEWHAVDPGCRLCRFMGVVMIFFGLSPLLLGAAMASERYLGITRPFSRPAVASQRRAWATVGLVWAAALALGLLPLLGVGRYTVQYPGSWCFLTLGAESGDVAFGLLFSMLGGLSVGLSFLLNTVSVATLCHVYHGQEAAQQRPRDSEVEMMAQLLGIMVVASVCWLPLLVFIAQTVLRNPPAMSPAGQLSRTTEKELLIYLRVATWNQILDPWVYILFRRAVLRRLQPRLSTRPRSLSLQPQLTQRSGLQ
Description: as §1
TxA2 receptor is expressed in HEK-293 cell line. Compounds and radiolabelled competitor SQ-29548 are incubated for 30 minutes at 25° C. Level of bound SQ-29548 is measured by scintillation counting, and competition is calculated from the total amount of the bound SQ-29548. […] is an unstable lipid mediator involved in blood clotting, and immune processes.

human 5-LO = target: T3, human 5-LO (Homo sapiens, UniProt P09917); experiment: Human 5-Lipoxygenase, 5-LO, assay in peripheral mononuclear blood cells; format: cell-based; details: 10 μM concentration, LTB4 readout
T3 construct: Human peripheral mononuclear blood cells were isolated using Ficoll density separation; endogenous in cells; host or cells: human peripheral blood mononuclear cells
T3 sequence (P09917 1-674): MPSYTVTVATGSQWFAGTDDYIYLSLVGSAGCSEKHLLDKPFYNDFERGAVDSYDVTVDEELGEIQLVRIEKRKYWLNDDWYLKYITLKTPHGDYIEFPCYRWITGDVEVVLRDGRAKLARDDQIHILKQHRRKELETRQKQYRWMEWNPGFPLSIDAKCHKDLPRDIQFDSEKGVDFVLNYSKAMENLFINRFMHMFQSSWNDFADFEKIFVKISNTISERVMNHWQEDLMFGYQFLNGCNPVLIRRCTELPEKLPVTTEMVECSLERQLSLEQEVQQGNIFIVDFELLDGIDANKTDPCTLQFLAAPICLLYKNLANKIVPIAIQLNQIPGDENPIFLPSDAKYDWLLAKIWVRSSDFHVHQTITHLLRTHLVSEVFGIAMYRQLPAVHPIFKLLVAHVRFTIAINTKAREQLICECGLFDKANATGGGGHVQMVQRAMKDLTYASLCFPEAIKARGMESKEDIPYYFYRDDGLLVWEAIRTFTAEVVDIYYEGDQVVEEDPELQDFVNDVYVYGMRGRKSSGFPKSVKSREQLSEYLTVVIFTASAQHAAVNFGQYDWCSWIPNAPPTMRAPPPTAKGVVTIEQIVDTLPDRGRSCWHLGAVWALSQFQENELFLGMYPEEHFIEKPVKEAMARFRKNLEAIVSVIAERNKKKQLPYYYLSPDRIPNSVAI
Description: as §1
Human peripheral mononuclear blood cells were isolated using Ficoll density separation. Cells were incubated in Hanks Balanced Salt Solution (HBSS) with compounds for 15 minutes at 37° C. Substrate (arachidonic acid) was added in 20 μM final concentration and cells were incubated for another 15 minutes. LTB4 as a final product of arachidonic acid metabolism was measured using competitive enzyme immunoassay (See, e.g., Safayhi, H. et al. Planta Medica 2000, 66, 110-113) and percentage of inhibition was calculated from the levels of LTB4 in cell supernatant.

CD1 mice = experiment: PMA induced ear oedema in CD1 mice; format: in vivo, mouse; details: topical, single dose of 250 or 100 μg/15 μL/ear; statistically significant vs positive control
Description: Male CD1 mice (Iffa Credo, France) weighing ˜35-40 g were randomly grouped (n=8 in vehicle treated test group, dexamethasone treated control group as well as in groups treated with compounds to be assayed). Test compounds, dexamethasone as well as vehicle (Trans-phase Delivery System, containing benzyl alcohol 10%, acetone 40% and isopropanol 50%) (all from Kemika, Croatia), were administered topically to the internal surface of the left ear thirty minutes prior to administration of phorbol 12-myristate 13-acetate (PMA) (Alexis biochemicals, USA). Test compounds were administered at a single dose of 250 or 100 μg/15 μL/ear and dexamethasone at a single dose of 50 μg/15 μL/ear. Thirty minutes later, 0.01% PMA solution in acetone was applied topically to the same area of each animal in a volume of 12 μL/ear. During the treatment and challenge, animals were anaesthetized by using inhalation anaesthesia. Six hours after the challenge, animals were euthanized by asphyxiation in 100% CO2 atmosphere. For assessing the auricular oedema, 8 mm discs were cut out of left and right auricular pinna and weighed. The degree of oedema was calculated by subtracting the weight of 8 mm disc of the untreated ear from that of the treated contralateral ear.

CysLT1 receptor = target: T4, CysLT1 receptor (Homo sapiens, UniProt Q9Y271); experiment: Human cysteinyl leukotriene receptor 1 (CysLT1) radioligand binding assay; details: 10 μM concentration; CHO-K1 cells
T4 construct: expressed in transfected cells; host or cells: CHO-K1
T4 sequence (Q9Y271 1-337): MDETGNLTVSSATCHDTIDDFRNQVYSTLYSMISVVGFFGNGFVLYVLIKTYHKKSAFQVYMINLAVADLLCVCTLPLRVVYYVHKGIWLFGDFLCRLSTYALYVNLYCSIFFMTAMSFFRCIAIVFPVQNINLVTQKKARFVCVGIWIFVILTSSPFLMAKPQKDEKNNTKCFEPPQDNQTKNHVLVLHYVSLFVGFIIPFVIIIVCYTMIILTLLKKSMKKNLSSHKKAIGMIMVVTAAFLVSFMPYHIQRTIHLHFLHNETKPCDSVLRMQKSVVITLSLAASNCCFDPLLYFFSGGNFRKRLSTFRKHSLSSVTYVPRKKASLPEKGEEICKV
Description: as §1
CysLT1 receptor is involved in immune diseases such as asthma, and has clinical significance as a point of intervention in asthma therapy. CysLT1 receptor is expressed in CHO-K1 cells (Chinese hamster ovary cells K1 clone). This is a competitive radioligand binding assay where substances compete with [^3H]-labeled Leulcotirene D4 (LTD4). Radioactive substance is measured with scintillation counting. Percentage of inhibition is calculated from the total radioactivity of the sample.

[1] = test system: Human prostanoid receptor; experiment: Human prostanoid receptor assay ([3H]-PGD2 competition); format: binding; details: 10 μM concentration; CHO-K1
Description: as §1
Human prostanoid receptor is expressed in Chinese hamster ovary cell line, clone K1 (CHO-K1). Substances and radioactive competitor (tritium labelled Prostaglandin D2 in 1.7 nM concentration) are incubated with cells in HEPES buffer for 2 hours at 25° C. in the presence of manganese ions. Level of the bound PGD2 is measured by scintillation counting, and competition is calculated from comparing the total amount of the bound PGD2 in treated versus control cells. Prostanoids are involved in many physiological and pathological processes, from inflammation to pain.

IL-5 = experiment: Inhibition of IL-5 production by ConA stimulated mouse splenocytes; format: cell-based; details: 25 μM
Description: Spleen cell suspension was obtained from BALB/c mice and lymphocytes separated by gradient density centrifugation on Histopaque 1.083 on 400 g for 30 minutes. They were washed once in medium, counted and their number adjusted as 3×10^5/200 μL/well in 96 flat bottomed culture plate in RPMI supplemented with 10% fetal bovine serum. Cells were stimulated on cytokine production by adding concanavalinA (ConA) at 5 μg/mL final concentration. Unstimulated cells were cultured in medium alone. Stock solution was prepared out of testing compounds as 10 mM in DMSO. Final concentrations made in cell culture medium were tested when they had been added together with ConA. After 72 hours incubation period cell culture supernatants were collected. In each sample IL-4, IL-5, IL-10 and IFNγ were detected and quantified using enzyme linked immunosorbent assay (ELISA) specific for pointed cytokines (R&D Systems).
To calculate results, standard curve was made out of measured OD values for recombinant protein in known concentrations. Cytokine content in unknown samples was calculated out of OD values extrapolated from the standard curve.
Percentage of inhibition is calculated using formula:
% Inhibition=(1−cytokine concentration of sample/cytokine concentration of positive control)×100.

T1 sequence (Q14432 whole entry): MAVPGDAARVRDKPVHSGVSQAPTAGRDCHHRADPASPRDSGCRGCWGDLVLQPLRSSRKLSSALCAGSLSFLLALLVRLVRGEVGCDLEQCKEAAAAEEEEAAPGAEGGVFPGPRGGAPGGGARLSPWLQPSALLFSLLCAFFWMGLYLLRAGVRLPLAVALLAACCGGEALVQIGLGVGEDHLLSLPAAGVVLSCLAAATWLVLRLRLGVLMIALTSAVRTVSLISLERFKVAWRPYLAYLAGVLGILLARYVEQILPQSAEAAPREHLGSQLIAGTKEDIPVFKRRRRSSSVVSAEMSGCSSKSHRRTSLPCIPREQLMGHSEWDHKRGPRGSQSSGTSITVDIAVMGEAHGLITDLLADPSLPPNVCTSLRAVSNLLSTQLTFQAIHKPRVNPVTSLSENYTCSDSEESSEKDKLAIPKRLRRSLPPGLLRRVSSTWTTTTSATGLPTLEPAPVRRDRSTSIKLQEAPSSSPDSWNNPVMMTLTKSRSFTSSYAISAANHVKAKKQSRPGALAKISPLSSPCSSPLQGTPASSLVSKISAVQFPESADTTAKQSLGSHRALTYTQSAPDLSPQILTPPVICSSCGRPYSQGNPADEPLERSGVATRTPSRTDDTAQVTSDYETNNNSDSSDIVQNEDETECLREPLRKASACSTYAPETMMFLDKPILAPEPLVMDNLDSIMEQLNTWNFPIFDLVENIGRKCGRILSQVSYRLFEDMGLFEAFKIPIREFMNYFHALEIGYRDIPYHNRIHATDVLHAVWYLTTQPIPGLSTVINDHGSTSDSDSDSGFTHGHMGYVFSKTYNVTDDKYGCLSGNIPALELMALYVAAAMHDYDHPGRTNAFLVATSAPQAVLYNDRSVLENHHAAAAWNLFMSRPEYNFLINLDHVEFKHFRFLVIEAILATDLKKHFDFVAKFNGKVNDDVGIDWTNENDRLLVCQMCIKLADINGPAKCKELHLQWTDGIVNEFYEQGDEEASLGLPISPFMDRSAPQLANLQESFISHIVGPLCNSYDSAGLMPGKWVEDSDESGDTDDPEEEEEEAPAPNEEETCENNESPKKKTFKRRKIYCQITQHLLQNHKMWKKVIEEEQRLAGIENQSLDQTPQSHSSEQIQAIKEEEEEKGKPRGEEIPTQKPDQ

## CCc1cccc2c(O)c(C(C(C)=O)c3c(O)c4cccc(CC)c4oc3=O)c(=O)oc12 [Example 17]
Human PDE4
  inhibition of human PDE4 activity: significantly inhibited
Human PDE3
  inhibition of human PDE3 activity: significantly inhibited
TxA2 receptor
  TxA2 receptor, competition with SQ-29548: significantly relevant activity
Human 5-LO
  inhibition of human 5-LO: significantly relevant activity

## CC(=O)C(c1c(O)c2cc(Cl)c(C)cc2oc1=O)c1c(O)c2cc(Cl)c(C)cc2oc1=O [Example 25]
CD1 mice
  suppression of ear oedema: considered active

## CCc1ccc2oc(=O)c(C(C(C)=O)c3c(O)c4cc(CC)ccc4oc3=O)c(O)c2c1 [Example 26]
CD1 mice
  suppression of ear oedema: considered active

## Cc1cc2oc(=O)c(C(CO)c3c(O)c4cc(C)c(C)cc4oc3=O)c(O)c2cc1C [Example 28]
CD1 mice
  suppression of ear oedema: considered active

## CCc1ccc2oc(=O)c(C(CO)c3c(O)c4cc(CC)ccc4oc3=O)c(O)c2c1 [Example 29]
CD1 mice
  suppression of ear oedema: considered active

## Cc1cc2oc(=O)c(C(C(=O)OCCO)c3c(O)c4cc(C)c(C)cc4oc3=O)c(O)c2cc1C [Example 51]
CD1 mice
  suppression of ear oedema: considered active

## Cc1cc2oc(=O)c(C(C(=O)OCCO)c3c(O)c4cc(Cl)c(C)cc4oc3=O)c(O)c2cc1Cl [Example 54]
CD1 mice
  suppression of ear oedema: considered active

## O=c1oc2ccccc2c(O)c1C(c1cccc(Cl)c1)c1c(O)c2ccccc2oc1=O [Example 66]
CD1 mice
  suppression of ear oedema: considered active

## CCOC(=O)C(c1c(O)c2cccc(C(C)C)c2oc1=O)c1c(O)c2cccc(C(C)C)c2oc1=O [Example 292]
CD1 mice
  suppression of ear oedema: considered active

## O=c1oc2ccccc2c(O)c1C(c1ccc2c(c1)OCO2)c1c(O)c2ccccc2oc1=O [Example 349]
CD1 mice
  suppression of ear oedema: considered active
CysLT1 receptor
  CysLT1 receptor, competition with [3H]-LTD4: significantly relevant activity
TxA2 receptor
  TxA2 receptor, competition with SQ-29548: significantly relevant activity
Human 5-LO
  inhibition of human 5-LO: significantly relevant activity

## O=c1oc2ccccc2c(O)c1C(c1cnc2ccccc2c1)c1c(O)c2ccccc2oc1=O [Example 351]
Human PDE4
  inhibition of human PDE4 activity: significantly inhibited
CD1 mice
  suppression of ear oedema: considered active
CysLT1 receptor
  CysLT1 receptor, competition with [3H]-LTD4: significantly relevant activity
[1]
  human prostanoid receptor, competition with tritium labelled PGD2: significantly relevant activity
Human PDE3
  inhibition of human PDE3 activity: significantly inhibited
Human 5-LO
  inhibition of human 5-LO: significantly relevant activity

## CC(C)c1cccc2c(O)c(C(c3c(O)c4cccc(C(C)C)c4oc3=O)C(C)O)c(=O)oc12 (stereo not drawn) [Example 364]
CD1 mice
  suppression of ear oedema: considered active
IL-5
  inhibition of IL-5 production: significantly inhibited
